One data set in a line: Emulsification index E24. Format: physicochemical. The note with it: surfactant solution 100 mg/liter; 2 ml hexadecane to 4 ml aqueous sample; measured 24 h later. The protocol: The emulsification index was determined by using a modification of a method described by Cooper and Goldenberg (APPLIED AND ENVIRONMENTAL MICROBIOLOGY, February 1987. p. 224-229). Surfactant solutions were prepared at 100 mg/liter. Emulsifier activity was measured by adding 2 ml of hexadecane to 4 ml of aqueous sample and vortexing at high speed for 1 min. Measurements were made 24 h later. The emulsion index (E24) was calculated using the equation E24(%)=[(height of emulsion layer)/(total height)]×100. Lutensol […] was used as positive control.

The next data set deals with Byssochlamys nivea. The data set can be described thus: Antimicrobial activity, micro broth dilution assay. The format is cell-based. The note with it: Paecilomyces niveus. Here is the method:
(§1) The antimicrobial activity of selected compounds was determined by micro broth dilution assay.

For the next data set, the system named is Saccharomyces cerevisiae. The experiment in a line: Antimicrobial activity, micro broth dilution assay. Format: cell-based. Here is the method:
as §1
In general terms: Broth dilution looks for growth in wells or tubes with falling amounts of substance.

Data set [1] has as its system Aspergillus montevidensis. The experiment in a line: Antimicrobial activity, micro broth dilution assay. The format is cell-based. The protocol:
as §1

The subject of another data set is Pseudomonas aeruginosa. The data set can be described thus: Antimicrobial activity, micro broth dilution assay. The format is cell-based. Here is the method: as §1
The next data set deals with Neosartorya sp. The experiment in a line: Antimicrobial activity, micro broth dilution assay. The format is cell-based. Here is the method: as §1
The subject of another data set is Brettanomyces sp. The data set can be described thus: Antimicrobial activity, micro broth dilution assay. The format is cell-based. Here is the method:
as §1

For a further data set, the system named is Zygosaccharomyces bailii. The data set can be described thus: Antimicrobial activity, micro broth dilution assay. The format is cell-based. The protocol: as §1
The next data set relates to Penicillium chrysogenum. The data set can be described thus: Antimicrobial activity, micro broth dilution assay. The format is cell-based. Here is the method: as §1
Another data set has as its system Penicillium expansum. The data set can be described thus: Antimicrobial activity, micro broth dilution assay. The format is cell-based. Here is the method:
as §1

A further data set has as its system Staphylococcus aureus. The experiment in a line: Antimicrobial activity, micro broth dilution assay. Format: cell-based. The protocol: as §1
In a further data set the test system is Bacillus subtilis. The data set can be described thus: Antimicrobial activity, micro broth dilution assay. The format is cell-based. The protocol:
as §1

For another data set, the system named is Penicillium roquefortii. The experiment in a line: Antimicrobial activity, micro broth dilution assay. The format is cell-based. The protocol: as §1
Another data set relates to Leuconostoc carnosum. The experiment in a line: Antimicrobial activity, micro broth dilution assay. The format is cell-based. Here is the method: as §1
The test system of a further data set is Aspergillus ruber. The experiment in a line: Antimicrobial activity, micro broth dilution assay. Format: cell-based. The protocol:
as §1

The subject of another data set is Escherichia coli. The data set can be described thus: Antimicrobial activity, micro broth dilution assay. Format: cell-based. Here is the method: as §1
For a further data set, the system named is Latilactobacillus sakei. The experiment in a line: Antimicrobial activity, micro broth dilution assay. The format is cell-based. Here is the method:
as §1

Another data set relates to Penicillium paneum. The data set can be described thus: Antimicrobial activity, micro broth dilution assay. The format is cell-based. Here is the method:
as §1

A further data set has as its system Candida parapsilosis. The data set can be described thus: Antimicrobial activity, micro broth dilution assay. The format is cell-based. The note with it: Lodderomyces parapsilosis. The protocol:
as §1

Molecules are shown by their SMILES. In brackets after ≈: the same amount, converted by molar mass. Some results are limits rather than exact numbers.

By MIC is commonly meant the lowest concentration that inhibits growth of the organism. A low value points to inhibition by little substance.

As to `CC(N)C(O)C(O)CCCCCCCCCCCCCCCC(OC1OC(CO)C(O)C(O)C1O)C(C)O` (stereo not drawn) [Compound I], in the data set “Emulsification index E24”, the E24 index amounted to 95%.
`CC(O)C(CCCCCCCCCCCCCCCCC(O)C(C)OC1OC(CO)C(O)C(O)C1O)OC1OC(CO)C(O)C(O)C1O` (stereo not drawn) [D]: in the data set “Emulsification index E24”, the E24 index is recorded as 90%.
Still for that read-out and setting: under `CC(O)C(CCCCCCCCCCCCCCCCC(O)C(C)NCC(=O)O)OC1OC(CO)C(O)C(O)C1O` (stereo not drawn) [C] stands 100%.
Still for that read-out and setting: under `CC(O)C(CCCCCCCCCCCCCCCCC(O)C(C)NC(=O)CCC(=O)O)OC1OC(CO)C(O)C(O)C1O` (stereo not drawn) [H] stands 94%; under `CC(N)C(O)/C=C/CCCCCCCCCCCCCCC(OC1OC(CO)C(O)C(O)C1O)C(C)O` (stereo not drawn) [J], 96%.
Consider `CC(N)C(O)CCCCCCCCCCCCCCC(OC1OC(CO)C(O)C(O)C1O)C(C)O` (stereo not drawn) [Compound A], for which, in “Emulsification index E24”, the E24 index was 95%. Also, the MIC in the data set on Byssochlamys nivea was more than 500 µg/mL; in the data set with Saccharomyces cerevisiae it was 250 µg/mL (≈ 492 µM); in data set [1], 250 µg/mL (≈ 492 µM); in the data set with Pseudomonas aeruginosa it was 600 µg/mL (≈ 1180 µM); with Neosartorya sp., 500 µg/mL (≈ 985 µM); in the data set on Brettanomyces sp, 500 µg/mL (≈ 985 µM). Also, the minimal inhibitory concentration (MIC) in the data set on Zygosaccharomyces bailii turned out to be 125 µg/mL (≈ 246 µM); in the data set on Penicillium chrysogenum, 125 µg/mL (≈ 246 µM); in the data set on Penicillium expansum it was 250 µg/mL (≈ 492 µM); with Staphylococcus aureus, 250 µg/mL (≈ 492 µM); against Bacillus subtilis it was 250 µg/mL (≈ 492 µM); in the data set with Penicillium roquefortii, 125 µg/mL (≈ 246 µM). The MIC came out at 500 µg/mL (≈ 985 µM) against Leuconostoc carnosum; 125 µg/mL (≈ 246 µM) in the data set on Aspergillus ruber; 600 µg/mL (≈ 1180 µM) in the data set on Escherichia coli; 125 µg/mL (≈ 246 µM) with Latilactobacillus sakei; 250 µg/mL (≈ 492 µM) with Penicillium paneum; 500 µg/mL (≈ 985 µM) against Candida parapsilosis.
`CC(N)C(O)CCCCCCCCCCCCCCCCC(OC1OC(CO)C(O)C(O)C1O)C(C)O` (stereo not drawn) [B] displayed an E24 index in the data set “Emulsification index E24” of 99%. Moreover, the minimum inhibitory concentration (MIC) was 500 µg/mL (≈ 933 µM) against Byssochlamys nivea; 125 µg/mL (≈ 233 µM) with Saccharomyces cerevisiae; 500 µg/mL (≈ 933 µM) in [1]; 250 µg/mL (≈ 467 µM) in the data set on Pseudomonas aeruginosa; 125 µg/mL (≈ 233 µM) in the data set on Neosartorya sp.; 125 µg/mL (≈ 233 µM) against Brettanomyces sp. For the same compound, the MIC is 125 µg/mL (≈ 233 µM) with Zygosaccharomyces bailii; 125 µg/mL (≈ 233 µM) in the data set with Penicillium chrysogenum; 250 µg/mL (≈ 467 µM) with Penicillium expansum; 250 µg/mL (≈ 467 µM) in the data set with Staphylococcus aureus; 250 µg/mL (≈ 467 µM) with Bacillus subtilis; 250 µg/mL (≈ 467 µM) in the data set with Penicillium roquefortii. For the same compound, the MIC with Leuconostoc carnosum is more than 500 µg/mL; against Aspergillus ruber, 500 µg/mL (≈ 933 µM); in the data set on Escherichia coli, 600 µg/mL (≈ 1120 µM); in the data set on Latilactobacillus sakei, 500 µg/mL (≈ 933 µM); in the data set with Penicillium paneum, 500 µg/mL (≈ 933 µM); in the data set on Candida parapsilosis, 250 µg/mL (≈ 467 µM).
The compound `CC(O)C(O)CCCCCCCCCCCCCCCCC(OC1OC(CO)C(O)C(O)C1O)C(C)O` (stereo not drawn) [F] displayed an E24 index in the data set “Emulsification index E24” of 100%.
Still for that read-out and setting: as for `CC(O)C(CCCCCCCCCCCCCCCCC(O)C(C)NC=O)OC1OC(CO)C(O)C(O)C1O` (stereo not drawn) [Compound E], the figure is 65%.

Source of the values: US20240216248A1, “MICROBIAL GLYCOLIPIDS” (ANALYTICON DISCOVERY GMBH, priority 2021, published 2024).
